Assay results: US3965105A, “Phenyl-lower-alkylamines” (Sterling Drug Inc., priority 1975, dated 1976)

Tests used:
[1] = inhibition of adjuvant-induced arthritis test, modified (adjuvant arthritis, AA); format: in vivo; settings: oral, text: millimoles (μM)/kg.)
Method: (§1) Anti-inflammatory activity was determined using (1) the inhibition of carrageenin-induced foot edema test essentially described by […] and (2) a modification of the inhibition of adjuvant-induced arthritis test described by Pierson, J. Chronic Diseases 16, 863 (1963) and Glenn et al., Am. J. Vet. Res. 26, 1180 (1965).
(§2) The phenyl-lower-alkylamines of formula I of the invention have been tested in the carrageenin edema (CE) and adjuvant arthritis (AA) tests and found to have anti-inflammatory activity. Data so-obtained, stated in terms of percent inhibition at a dose expressed in terms of millimoles (μM)/kg.,are given below. All data were obtained on oral administration.

[2] = inhibition of carrageenin-induced foot edema test (carrageenin edema, CE); format: in vivo; settings: oral, text: millimoles (μM)/kg.)
Method: as §1, §2

| Structure (SMILES) | AA (% Inhib.) ([1]; dose 0.324 (head: mmol/kg) [%] | CE (% Inhib.) ([2]; dose 0.08 (head: mmol/kg) [%] | CE (% Inhib.) ([2]; dose 0.324 (head: mmol/kg) [%] | CE (% Inhib.) ([2]; dose 0.005 (head: mmol/kg) [%] | CE (% Inhib.) ([2]; dose 0.02 (head: mmol/kg) [%] | AA (% Inhib.) ([1]; dose 0.01 (head: mmol/kg) [%] | AA (% Inhib.) ([1]; dose 0.04 (head: mmol/kg) [%] | AA (% Inhib.) ([1]; dose 0.16 (head: mmol/kg) [%] |
| --- | --- | --- | --- | --- | --- | --- | --- | --- |
| CC(C)Cc1ccc(C(C)CN2CCCCC2CC2CCCCC2)cc1 (stereo not drawn) [Example 1, 2-cyclohexylmethyl-1-[2-(4-isobutylphenyl)propyl]piperidine] | 75 | 0 | 5 | – | – | – | – | – |
| CC(CN1CCCCC1CC1CCCCC1)c1cccc(Br)c1 (stereo not drawn) [Example 4, 2-cyclohexylmethyl-1-[2-(3-bromophenyl)propyl]piperidine] | – | 0 | – | 7 | 4 | – | – | – |
| CC(CN1CCCCC1CC1CCCCC1)c1ccccc1 (stereo not drawn) [Example 5, 2-cyclohexylmethyl-1-(2-phenylpropyl)piperidine] | – | 13 | – | 0 | 16 | – | – | – |
| CCN(CC)CCCC(C)NCC(C)c1ccc(CC(C)C)cc1 (stereo not drawn) [Example 2, N-[2-(4-isobutylphenyl)propyl]-N-[5-(N',N'-diethylamino)-2-pentyl]amine] | – | 17 | 39 | – | 0 | 32 | 34 | 63 |
| CC(C)Cc1ccc(C(C)CN2C(C)CCCC2C)cc1 (stereo not drawn) [Example 3, 2,6-dimethyl-1-[2-(4-isobutylphenyl)propyl]piperidine] | 55 | 0 | 8 | – | – | – | – | – |
